{"source": "PubChem BioAssay (NCI)", "experiment_in_all_cases": "NCI anticancer screen, dose series, 48 h", "key": {"HS 578T breast": {"test_system": "HS 578T breast"}, "SK-MEL-28 melanoma": {"test_system": "SK-MEL-28 melanoma"}, "RXF 393 renal": {"test_system": "RXF 393 renal"}, "SF-539 CNS": {"test_system": "SF-539 CNS"}, "U251 CNS": {"test_system": "U251 CNS"}, "NCI-H23 lung": {"test_system": "NCI-H23 lung"}, "UACC-257 melanoma": {"test_system": "UACC-257 melanoma"}, "K-562 leukemia": {"test_system": "K-562 leukemia"}, "EKVX NSCLC": {"test_system": "EKVX NSCLC"}, "SF-268 CNS": {"test_system": "SF-268 CNS"}, "PC-3 prostate": {"test_system": "PC-3 prostate"}, "SNB-75 CNS": {"test_system": "SNB-75 CNS"}, "SNB-19 CNS": {"test_system": "SNB-19 CNS"}, "A549 NSCLC": {"test_system": "A549 NSCLC"}, "LOX IMVI melanoma": {"test_system": "LOX IMVI melanoma"}, "HCT-15 colon": {"test_system": "HCT-15 colon"}, "MALME-3M melanoma": {"test_system": "MALME-3M melanoma"}, "OVCAR-3 ovarian": {"test_system": "OVCAR-3 ovarian"}, "HOP-92 NSCLC": {"test_system": "HOP-92 NSCLC"}, "OVCAR-8 ovarian": {"test_system": "OVCAR-8 ovarian"}, "SK-MEL-5 melanoma": {"test_system": "SK-MEL-5 melanoma"}, "SF-295 CNS": {"test_system": "SF-295 CNS"}, "OVCAR-5 ovarian": {"test_system": "OVCAR-5 ovarian"}, "COLO 205 colon": {"test_system": "COLO 205 colon"}, "A498 renal": {"test_system": "A498 renal"}, "DU-145 prostate": {"test_system": "DU-145 prostate"}, "NCI/ADR-RES ovarian": {"test_system": "NCI/ADR-RES ovarian"}, "T-47D breast": {"test_system": "T-47D breast"}, "SW-620 colon": {"test_system": "SW-620 colon"}, "786-0 renal": {"test_system": "786-0 renal"}, "HCT-116 colon": {"test_system": "HCT-116 colon"}, "MCF7 breast": {"test_system": "MCF7 breast"}, "MOLT-4 leukemia": {"test_system": "MOLT-4 leukemia"}, "TK-10 renal": {"test_system": "TK-10 renal"}, "CAKI-1 renal": {"test_system": "CAKI-1 renal"}, "KM12 colon": {"test_system": "KM12 colon"}, "HT29 colon": {"test_system": "HT29 colon"}, "BT-549 breast": {"test_system": "BT-549 breast"}, "ACHN renal": {"test_system": "ACHN renal"}, "NCI-H460 lung": {"test_system": "NCI-H460 lung"}, "SK-OV-3 ovarian": {"test_system": "SK-OV-3 ovarian"}, "MDA-MB-435": {"test_system": "MDA-MB-435"}, "HOP-62 NSCLC": {"test_system": "HOP-62 NSCLC"}, "M14 melanoma": {"test_system": "M14 melanoma"}, "OVCAR-4 ovarian": {"test_system": "OVCAR-4 ovarian"}}, "note": "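Following 48 hours of exposure in 96-well plates, responses at five concentrations were used to interpolate endpoints linearly. Here, GI50 denotes the concentration required for 50% inhibition of growth. At the TGI there is no net growth.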", "data": [{"smiles": "COc1cc2c3c(n(C)c(=O)c2cc1OC)-c1cc2c(cc1/C3=C\\CCCN1C(=O)c3ccccc3C1=O)OCO2", "values": [{"measurement": "GI50", "setting": "HS 578T breast", "value": "> 40", "unit": "µM"}, {"measurement": "TGI", "setting": "HS 578T breast", "value": "> 40", "unit": "µM"}, {"measurement": "GI50", "setting": "SK-MEL-28 melanoma", "value": "> 40", "unit": "µM"}, {"measurement": "TGI", "setting": "SK-MEL-28 melanoma", "value": "> 40", "unit": "µM"}, {"measurement": "GI50", "setting": "RXF 393 renal", "value": "> 40", "unit": "µM"}, {"measurement": "TGI", "setting": "RXF 393 renal", "value": "> 40", "unit": "µM"}, {"measurement": "GI50", "setting": "SF-539 CNS", "value": 8.99, "unit": "µM"}, {"measurement": "TGI", "setting": "SF-539 CNS", "value": "> 40", "unit": "µM"}, {"measurement": "GI50", "setting": "U251 CNS", "value": 12.8, "unit": "µM"}, {"measurement": "TGI", "setting": "U251 CNS", "value": "> 40", "unit": "µM"}, {"measurement": "GI50", "setting": "NCI-H23 lung", "value": "> 40", "unit": "µM"}, {"measurement": "TGI", "setting": "NCI-H23 lung", "value": "> 40", "unit": "µM"}, {"measurement": "GI50", "setting": "UACC-257 melanoma", "value": "> 40", "unit": "µM"}, {"measurement": "TGI", "setting": "UACC-257 melanoma", "value": "> 40", "unit": "µM"}, {"measurement": "GI50", "setting": "K-562 leukemia", "value": 15, "unit": "µM"}, {"measurement": "TGI", "setting": "K-562 leukemia", "value": "> 40", "unit": "µM"}, {"measurement": "GI50", "setting": "EKVX NSCLC", "value": 5.2, "unit": "µM"}, {"measurement": "TGI", "setting": "EKVX NSCLC", "value": "> 40", "unit": "µM"}, {"measurement": "GI50", "setting": "SF-268 CNS", "value": 14.2, "unit": "µM"}, {"measurement": "TGI", "setting": "SF-268 CNS", "value": "> 40", "unit": "µM"}, {"measurement": "GI50", "setting": "PC-3 prostate", "value": 4.79, "unit": "µM"}, {"measurement": "TGI", "setting": "PC-3 prostate", "value": 24.7, "unit": "µM"}, {"measurement": "GI50", "setting": "SNB-75 CNS", "value": 27.8, "unit": "µM"}, {"measurement": "TGI", "setting": "SNB-75 CNS", "value": "> 40", "unit": "µM"}, {"measurement": "GI50", "setting": "SNB-19 CNS", "value": "> 40", "unit": "µM"}, {"measurement": "TGI", "setting": "SNB-19 CNS", "value": "> 40", "unit": "µM"}, {"measurement": "GI50", "setting": "A549 NSCLC", "value": 22, "unit": "µM"}, {"measurement": "TGI", "setting": "A549 NSCLC", "value": "> 40", "unit": "µM"}, {"measurement": "GI50", "setting": "LOX IMVI melanoma", "value": 20.8, "unit": "µM"}, {"measurement": "TGI", "setting": "LOX IMVI melanoma", "value": "> 40", "unit": "µM"}, {"measurement": "GI50", "setting": "HCT-15 colon", "value": "> 40", "unit": "µM"}, {"measurement": "TGI", "setting": "HCT-15 colon", "value": "> 40", "unit": "µM"}, {"measurement": "GI50", "setting": "MALME-3M melanoma", "value": "> 40", "unit": "µM"}, {"measurement": "TGI", "setting": "MALME-3M melanoma", "value": "> 40", "unit": "µM"}, {"measurement": "GI50", "setting": "OVCAR-3 ovarian", "value": "> 40", "unit": "µM"}, {"measurement": "TGI", "setting": "OVCAR-3 ovarian", "value": "> 40", "unit": "µM"}, {"measurement": "GI50", "setting": "HOP-92 NSCLC", "value": 2.12, "unit": "µM"}, {"measurement": "TGI", "setting": "HOP-92 NSCLC", "value": 13.4, "unit": "µM"}, {"measurement": "GI50", "setting": "OVCAR-8 ovarian", "value": 23.8, "unit": "µM"}, {"measurement": "TGI", "setting": "OVCAR-8 ovarian", "value": "> 40", "unit": "µM"}, {"measurement": "GI50", "setting": "SK-MEL-5 melanoma", "value": 21.7, "unit": "µM"}, {"measurement": "TGI", "setting": "SK-MEL-5 melanoma", "value": "> 40", "unit": "µM"}, {"measurement": "GI50", "setting": "SF-295 CNS", "value": 3.61, "unit": "µM"}, {"measurement": "TGI", "setting": "SF-295 CNS", "value": "> 40", "unit": "µM"}, {"measurement": "GI50", "setting": "OVCAR-5 ovarian", "value": "> 40", "unit": "µM"}, {"measurement": "TGI", "setting": "OVCAR-5 ovarian", "value": "> 40", "unit": "µM"}, {"measurement": "GI50", "setting": "COLO 205 colon", "value": "> 40", "unit": "µM"}, {"measurement": "TGI", "setting": "COLO 205 colon", "value": "> 40", "unit": "µM"}, {"measurement": "GI50", "setting": "A498 renal", "value": "> 40", "unit": "µM"}, {"measurement": "TGI", "setting": "A498 renal", "value": "> 40", "unit": "µM"}, {"measurement": "GI50", "setting": "DU-145 prostate", "value": 6.73, "unit": "µM"}, {"measurement": "TGI", "setting": "DU-145 prostate", "value": "> 40", "unit": "µM"}, {"measurement": "GI50", "setting": "NCI/ADR-RES ovarian", "value": "> 40", "unit": "µM"}, {"measurement": "TGI", "setting": "NCI/ADR-RES ovarian", "value": "> 40", "unit": "µM"}, {"measurement": "GI50", "setting": "T-47D breast", "value": "> 40", "unit": "µM"}, {"measurement": "TGI", "setting": "T-47D breast", "value": "> 40", "unit": "µM"}, {"measurement": "GI50", "setting": "SW-620 colon", "value": 13.5, "unit": "µM"}, {"measurement": "TGI", "setting": "SW-620 colon", "value": "> 40", "unit": "µM"}, {"measurement": "GI50", "setting": "786-0 renal", "value": "> 40", "unit": "µM"}, {"measurement": "TGI", "setting": "786-0 renal", "value": "> 40", "unit": "µM"}, {"measurement": "GI50", "setting": "HCT-116 colon", "value": 26.2, "unit": "µM"}, {"measurement": "TGI", "setting": "HCT-116 colon", "value": "> 40", "unit": "µM"}, {"measurement": "GI50", "setting": "MCF7 breast", "value": 6.94, "unit": "µM"}, {"measurement": "TGI", "setting": "MCF7 breast", "value": "> 40", "unit": "µM"}, {"measurement": "GI50", "setting": "MOLT-4 leukemia", "value": 1.18, "unit": "µM"}, {"measurement": "TGI", "setting": "MOLT-4 leukemia", "value": 5.17, "unit": "µM"}, {"measurement": "GI50", "setting": "TK-10 renal", "value": "> 40", "unit": "µM"}, {"measurement": "TGI", "setting": "TK-10 renal", "value": "> 40", "unit": "µM"}, {"measurement": "GI50", "setting": "CAKI-1 renal", "value": 5.44, "unit": "µM"}, {"measurement": "TGI", "setting": "CAKI-1 renal", "value": "> 40", "unit": "µM"}, {"measurement": "GI50", "setting": "KM12 colon", "value": 5.1, "unit": "µM"}, {"measurement": "TGI", "setting": "KM12 colon", "value": "> 40", "unit": "µM"}, {"measurement": "GI50", "setting": "HT29 colon", "value": "> 40", "unit": "µM"}, {"measurement": "TGI", "setting": "HT29 colon", "value": "> 40", "unit": "µM"}, {"measurement": "GI50", "setting": "BT-549 breast", "value": 8.26, "unit": "µM"}, {"measurement": "TGI", "setting": "BT-549 breast", "value": "> 40", "unit": "µM"}, {"measurement": "GI50", "setting": "ACHN renal", "value": 8.67, "unit": "µM"}, {"measurement": "TGI", "setting": "ACHN renal", "value": "> 40", "unit": "µM"}, {"measurement": "GI50", "setting": "NCI-H460 lung", "value": 4.76, "unit": "µM"}, {"measurement": "TGI", "setting": "NCI-H460 lung", "value": "> 40", "unit": "µM"}, {"measurement": "GI50", "setting": "SK-OV-3 ovarian", "value": "> 40", "unit": "µM"}, {"measurement": "TGI", "setting": "SK-OV-3 ovarian", "value": "> 40", "unit": "µM"}, {"measurement": "GI50", "setting": "MDA-MB-435", "value": "> 40", "unit": "µM"}, {"measurement": "TGI", "setting": "MDA-MB-435", "value": "> 40", "unit": "µM"}, {"measurement": "GI50", "setting": "HOP-62 NSCLC", "value": 19.2, "unit": "µM"}, {"measurement": "TGI", "setting": "HOP-62 NSCLC", "value": "> 40", "unit": "µM"}, {"measurement": "GI50", "setting": "M14 melanoma", "value": "> 40", "unit": "µM"}, {"measurement": "TGI", "setting": "M14 melanoma", "value": "> 40", "unit": "µM"}, {"measurement": "GI50", "setting": "OVCAR-4 ovarian", "value": "> 40", "unit": "µM"}, {"measurement": "TGI", "setting": "OVCAR-4 ovarian", "value": "> 40", "unit": "µM"}]}]}
